{"source": "patent US11352365B2", "about": "“Biased potent opioid-like agonists as improved medications to treat chronic and acute pain and methods of using the same” (THE UNITED STATES OF AMERICA, AS REPRESENTED BY THE …, priority 2018, dated 2022)", "key": {"δ opioid receptor": {"biological_target": "T1, δ opioid receptor (Rattus norvegicus, UniProt P33533)", "T1 construct": "from tissue; host or cells: rat tissue (per the earlier reading)", "T1 sequence (P33533 whole entry)": "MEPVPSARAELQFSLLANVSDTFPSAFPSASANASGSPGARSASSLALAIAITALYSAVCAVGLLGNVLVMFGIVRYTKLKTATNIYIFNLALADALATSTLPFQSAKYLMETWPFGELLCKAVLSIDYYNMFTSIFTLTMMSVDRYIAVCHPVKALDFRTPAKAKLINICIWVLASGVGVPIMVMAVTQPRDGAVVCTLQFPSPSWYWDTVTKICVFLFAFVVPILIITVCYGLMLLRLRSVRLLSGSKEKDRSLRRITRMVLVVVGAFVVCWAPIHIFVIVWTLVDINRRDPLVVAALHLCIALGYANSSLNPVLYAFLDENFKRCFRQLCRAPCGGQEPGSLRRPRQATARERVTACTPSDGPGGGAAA", "assay": "Binding assay, 3H DADLE, rat tissue", "settings": "100 nM concentration"}, "κ opioid receptor": {"biological_target": "T2, κ opioid receptor (Rattus norvegicus, UniProt P34975)", "T2 construct": "from tissue; host or cells: rat tissue (per the earlier reading)", "T2 sequence (P34975 whole entry)": "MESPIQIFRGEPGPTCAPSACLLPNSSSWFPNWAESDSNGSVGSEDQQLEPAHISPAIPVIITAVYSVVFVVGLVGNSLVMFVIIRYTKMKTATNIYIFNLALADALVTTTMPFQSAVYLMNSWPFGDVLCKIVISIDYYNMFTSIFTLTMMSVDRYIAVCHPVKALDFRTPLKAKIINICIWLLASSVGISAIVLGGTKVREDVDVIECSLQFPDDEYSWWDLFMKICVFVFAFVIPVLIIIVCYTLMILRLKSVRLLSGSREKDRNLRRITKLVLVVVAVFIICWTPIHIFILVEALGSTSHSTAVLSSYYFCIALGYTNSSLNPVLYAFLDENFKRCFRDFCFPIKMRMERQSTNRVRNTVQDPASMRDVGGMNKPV", "assay": "Binding assay, 3H U69,593, rat tissue"}, "μ opioid receptor": {"biological_target": "μ opioid receptor (Rattus norvegicus, UniProt P33535)", "sequence (P33535 whole entry)": "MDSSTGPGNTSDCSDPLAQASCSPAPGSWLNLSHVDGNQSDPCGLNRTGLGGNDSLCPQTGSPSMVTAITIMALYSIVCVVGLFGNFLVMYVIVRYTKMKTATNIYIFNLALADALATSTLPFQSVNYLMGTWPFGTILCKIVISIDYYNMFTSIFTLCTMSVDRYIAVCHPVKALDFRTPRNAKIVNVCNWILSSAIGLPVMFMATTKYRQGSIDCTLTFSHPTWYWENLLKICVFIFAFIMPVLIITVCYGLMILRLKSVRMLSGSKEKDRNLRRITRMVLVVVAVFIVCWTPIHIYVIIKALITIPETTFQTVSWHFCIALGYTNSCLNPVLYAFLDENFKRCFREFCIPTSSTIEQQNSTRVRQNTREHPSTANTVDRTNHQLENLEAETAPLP", "settings": "read-out: 3H DAMGO μ Ki ± SEM; rat tissue, triplicate"}, "MOR [1]": {"biological_target": "T3, MOR (Homo sapiens, UniProt P35372)", "T3 sequence (P35372 whole entry)": "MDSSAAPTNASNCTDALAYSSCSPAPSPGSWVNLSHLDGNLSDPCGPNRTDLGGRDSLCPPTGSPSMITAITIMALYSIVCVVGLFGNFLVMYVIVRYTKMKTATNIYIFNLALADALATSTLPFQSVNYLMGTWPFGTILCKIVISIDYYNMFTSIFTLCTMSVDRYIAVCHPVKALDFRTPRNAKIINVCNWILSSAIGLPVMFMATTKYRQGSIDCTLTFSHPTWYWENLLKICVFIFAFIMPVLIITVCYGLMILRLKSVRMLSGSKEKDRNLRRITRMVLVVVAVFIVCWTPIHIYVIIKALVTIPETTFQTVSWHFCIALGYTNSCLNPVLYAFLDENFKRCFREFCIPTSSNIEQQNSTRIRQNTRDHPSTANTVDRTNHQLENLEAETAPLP", "assay": "cell-based", "type": "cell-based", "parameters": "host or cells: U2OS-β-arrestin2-EFC-hMOR", "method": "The PathHunter β-arrestin assay. The assay was performed according to the manufacturer's protocol (DiscoveRx) and as described previously. Briefly, 5000 U2OS-β-arrestin2-EFC-hMOR cells were plated in 384-well white plates with Opti-MEM media (Invitrogen) containing 1% FBS±pertussis toxin (100 ng/ml) overnight. The next day, cells were treated with compounds for 90 min at 37° C., followed by a 1-hour incubation of detection reagent at room temperature. Luminescence values were determined by using a Synergy HT luminometer (BioTek)."}, "MOR [2]": {"biological_target": "T3, MOR", "assay": "cell-based", "type": "cell-based", "parameters": "expressed in transfected cells; host or cells: CHO-hMOR (membrane variant); SH-SY5Y-hMOR also named", "method": "Four thousand cells per well were split into 384-well low-volume plate (VWR) with Opti-MEM (Invitrogen) supplemented with 1% FBS for 3 hours at 37° C. except SH-SY5Y-hMOR cells, which were plated for 1 hour at 37° C. Cells were then treated with drugs, […] forskolin for 30 min at room temperature.\nCells were then homogenized by a Dounce homogenizer 15 times in an ice-cold buffer [50 mM Hepes (pH 7.4)], followed by centrifugation at 500 g at 4° C. for 5 min. The supernatant was transferred to a 1.5-ml tube on ice, and the pellet was resuspended, homogenized, and centrifuged at 500 g at 4° C. for 5 min. Then, the supernatant was combined and spun at 20,000 g at 4° C. for 10 min. The membrane pellet was resuspended in an ice-cold buffer [50 mM Hepes (pH 7.4)] at concentrations of […]. Membranes were stored at −80° C. until use. For forskolin-stimulated cAMP accumulation assay, membranes were diluted in an assay buffer (50 mM Hepes, 10 mM MgCl2, 100 mM NaCl, 200 mM adenosine 5′-triphosphate, 10 mM GTP, 100 mM 3-isobutyl-1-methylxanthine, 20 mM forskolin, and 30 mM bovine serum albumin) and plated at […] of protein in each well. Membranes were treated with test compounds for 30 min at room temperature. The cAMP levels were determined as per the manufacturer's instructions (Cisbio cAMP HiRange assay)."}}, "note": "Like-named read-outs stand apart in the source and are kept apart here."}
{"substance": "3-((1S,5R,9R)-9-(2-hydroxyethyl)-2-phenethyl-2-azabicyclo[3.3.1]nonan-5-yl)phenol [Compound 9]", "values": [{"measurement": "3H DADLE δ activity in exploratory assay", "setting": "δ opioid receptor", "result": "I (<50% activity at 100 nM concentration (displaced less than half of radioligand) in exploratory assay)"}, {"measurement": "3H U69,593 κ activity in exploratory assay", "setting": "κ opioid receptor; 100 nM concentration, rat tissue", "result": "I (<50% activity at 100 nM concentration (displaced less than half of radioligand) in exploratory assay)"}, {"measurement": "interaction with the kappa-receptor (in words)", "setting": "κ opioid receptor; in vitro data", "result": "does not interact with the kappa-receptor"}, {"measurement": "Ki", "setting": "μ opioid receptor", "result": "5.43 ± 0.09", "unit": "nM"}, {"measurement": "beta-arrestin recruitment (in words)", "setting": "MOR [1]", "result": "do not"}, {"measurement": "EC50", "setting": "MOR [1]; Table 1, read-out: MOR Mediated β-arrestin Recruitment", "result": "> 25000", "unit": "nM"}, {"measurement": "MOR cAMP Agonist (% Efficacy)", "setting": "MOR [2]; Table 1", "result": "(64 ± 2%)"}, {"measurement": "EC50", "setting": "MOR [2]; Table 1, read-out: MOR cAMP Agonist Potency ± SEM", "result": "4.7 ± 0.5", "unit": "nM"}, {"measurement": "agonist character at the mu-receptor (in words)", "setting": "MOR [2]; in vitro data", "result": "less potent partial agonist"}]}
